# Experimental data reported in patent US20250339494A1, “COMPOUNDS INDUCING PRODUCTION OF PROTEINS BY IMMUNE CELLS” (UNIVERSITE PARIS CITE, priority 2022, published 2025).
# Test system: Human B cells
# Test: IL-10 induction in human B cells cultivated 2 days with anti-IgM plus CpG; IL-10 measured in cell culture supernatants
# Format: cell-based
# Conditions: 2 consecutive days, molecule at 0.25 μM final concentration, culture supernatant
# Experimental: Human B cells isolated magnetically through negative selection (B Cell Isolation Kit II, human, Miltenyi ref: 130-091-151) were cultivated for 2 consecutive days in the presence of anti-IgM plus CpG in the presence of the indicated molecule (see table 3) at 0.25 μM final concentration. IL-10 was measured in cell culture supernatants.
# Human B cells isolated magnetically through negative selection (B Cell Isolation Kit II, human, Miltenyi ref: 130-091-151) were cultivated for 2 consecutive days in the presence of anti-IgM plus CpG in the presence of DMSO (as control) or in the presence of the indicated molecule (as identified in the attached excel file) at 0.25 microM final concentration. IL-10 was measured in cell culture supernatants. NS: non stimulated B cell culture condition.
substance,measurement,value
"2-methoxy-N-(1-methyl-2-(pyridin-3-yl)-1H-imidazo[4,5-b]pyridin-5-yl)benzamide + 2-methoxy-N-(3-methyl-2-(pyridin-3-yl)-3H-imidazo[4,5-b]pyridin-5-yl)benzamide [Compound 131]",IL-10 Induction Mean (pg/mL) human,1.85 pg/mL
